From BindingDB's records for doi:10.1111/j.1747-0285.2007.00608.x (National Institute of Pharmaceutical Education and Research, 2008)
pIC50: −log10 of the molar value.

biological target: T1, UDP-3-O-acyl-N-acetylglucosamine deacetylase (Pseudomonas aeruginosa (strain ATCC 15692 / DSM 22644 / CIP 104116 / JCM 14847 / LMG 12228 / 1C / PRS 101 / PAO1), UniProt P47205); experiment: Inhibition Assay
T1 sequence (P47205 whole entry): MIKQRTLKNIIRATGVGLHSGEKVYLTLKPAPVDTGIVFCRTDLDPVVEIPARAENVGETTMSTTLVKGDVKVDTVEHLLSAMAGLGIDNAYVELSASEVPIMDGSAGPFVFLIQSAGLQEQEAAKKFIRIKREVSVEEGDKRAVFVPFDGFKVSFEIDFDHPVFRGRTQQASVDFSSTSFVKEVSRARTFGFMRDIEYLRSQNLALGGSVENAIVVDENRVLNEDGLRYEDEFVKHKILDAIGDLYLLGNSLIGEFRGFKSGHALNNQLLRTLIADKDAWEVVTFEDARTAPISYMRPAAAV
Source text: The LpxC inhibitors were used as the reference for development of flexible alignment-based pharamcophore, pharamcophore mapping study.

Point of comparison: CCCCn1nc(C2=N[C@@H](C(=O)NO)CO2)c2ccccc21 [LpxC Inhibitor, L11], pIC50 5.00. Against it:
- CN(C)c1ccc(C2=N[C@@H](C(=O)NO)CO2)cc1 [CS273] — 0.31 log units higher, 5.31
- CCCc1cc(C2=N[C@@H](C(=O)NO)CO2)cc(OC(F)(F)F)c1OC [LpxC Inhibitor, L1] — 1.30 log units higher, 6.30
- O=C(NO)[C@H]1COC(c2ccc(COc3cccc([N+](=O)[O-])c3)cc2)=N1 [LpxC Inhibitor, L2] — 1.25 log units higher, 6.25
- Cc1cc(C2=N[C@@H](C(=O)NO)CO2)ccc1F [LpxC Inhibitor, L3] — 0.92 log units higher, 5.92
- C=CCOc1ccc(C2=N[C@@H](C(=O)NO)CO2)cc1C(F)(F)F [LpxC Inhibitor, L4] — 0.66 log units higher, 5.66
- O=C(N[C@@H](CO)C(=O)NO)c1n[nH]c2ccccc12 [LpxC Inhibitor, L5] — within 0.2 log units, 4.89
- O=C(NO)[C@H]1COC(c2ccc(OCc3cccc(F)c3)c(C(F)(F)F)c2)=N1 [LpxC Inhibitor, L6] — 1.60 log units higher, 6.60
- O=C(NO)[C@H]1COC(c2cc(F)cc(C(F)(F)F)c2)=N1 [LpxC Inhibitor, L7] — 0.40 log units lower, 4.60
- O=C(NO)[C@H]1COC(c2n[nH]c3ccccc23)=N1 [LpxC Inhibitor, L9] — 0.26 log units higher, 5.26
- CCOc1cc(C2=N[C@@H](C(=O)NO)CO2)ccc1F [LpxC Inhibitor, L10] — 1.00 log units higher, 6.00
- CCCCn1nc2ccccc2c1C1=N[C@@H](C(=O)NO)CO1 [LpxC Inhibitor, L12] — within 0.2 log units, 4.92
- CCCc1cc(C(=O)N[C@@H](CO)C(=O)NO)cc(OC(C)(C)C)c1OC [LpxC Inhibitor, L13] — lower, < 4.30
- CCCc1cc(C2=N[C@H](C(=O)NO)CS2)cc(OC(F)(F)F)c1OC [LpxC Inhibitor, L14] — 0.25 log units lower, 4.75
- COc1ccc(C2=N[C@H](C(=O)NO)CO2)cc1OC(F)(F)F [LpxC Inhibitor, L15] — 1.80 log units higher, 6.80
- O=C(NO)[C@@H]1COC(c2ccc(OCc3cccc([N+](=O)[O-])c3)cc2)=N1 [LpxC Inhibitor, L16] — 1.00 log units higher, 6.00
- O=C(NO)[C@@H]1COC(c2ccc(O)cc2)=N1 [LpxC Inhibitor, L17] — lower, < 4.52
- Cc1ccc(C2=N[C@H](C(=O)NO)CS2)cc1 [LpxC Inhibitor, L18] — 0.59 log units lower, 4.41
